What was measured:
Format in all cases: functional, Homo sapiens
Set-up in all cases: dose or concentration left out as unconfirmed
[1] = test system: Colon cancer organoid; test: Identification of compartment-specific drug sensitivities in O14 CRC organoid-stroma F14 CAF co-cultures. Organoid is transduced with Lucferase2-P2A-EGFP lentivirus, fibroblast with Renilla-dsRed lentivirus. Dual-Glo Luciferase assay is used to report viability data.
[2] = test system: Colon cancer organoid; test: Identification of compartment-specific drug sensitivities in O20 CRC organoid-stroma F20 CAF co-cultures. Organoid is transduced with Lucferase2-P2A-EGFP lentivirus, fibroblast with Renilla-dsRed lentivirus. Dual-Glo Luciferase assay is used to report viability data.
[3] = test system: Colon cancer organoid; test: Identification of compartment-specific drug sensitivities in O06 CRC organoid-stroma F06 CAF co-cultures. Organoid is transduced with Lucferase2-P2A-EGFP lentivirus, fibroblast with Renilla-dsRed lentivirus. Dual-Glo Luciferase assay is used to report viability data.
[4] = Transduced with Lucferase2-P2A-EGFP lentivirus
[5] = Transduced with Renilla-dsRed lentivirus

SMILES	Cell Viability [1, 4]	Cell Viability [1, 5]	Cell Viability [2, 4]	Cell Viability [2, 5]	Cell Viability [3, 4]	Cell Viability [3, 5]
C=CC(=O)Nc1ccc2[nH]c(=O)n(C3CCN(Cc4ccc(-c5ccc6c(c5)NC(=O)CO6)cc4)CC3)c2c1 [RL2578]	83.2796%	87.8699%	101.642%	98.7435%	88.4189%	104.707%
O=C(c1ccc(F)c(F)c1Nc1ccc(I)cc1F)N1CC(O)([C@@H]2CCCCN2)C1 [COBIMETINIB]	13.8076%	23.8651%	4.065%	77.761%	5.143%	42.4292%
Cc1c(NC(=O)c2ccc(C(C)(C)C)cc2)cccc1-c1cn(C)c(=O)c(Nc2ccc(C(=O)N3CCOCC3)cc2)n1	92.1091%	94.7887%	110.349%	88.3582%	105.279%	113.435%
CN(C)CCCOc1ccc(-c2cc(NCCCn3cccn3)nc(S(C)(=O)=O)n2)cc1	139.487%	89.5427%	144.942%	126.832%	126.468%	129.443%
O=C(NCC(=O)N1CCCC1)Nc1ccc2cnccc2c1	110.898%	98.9067%	121.558%	100.064%	80.3687%	124.064%
O=C1[C@H](Cc2ccc(O)cc2)N2C(=O)CCN(C(=O)NCc3ccccc3)[C@H]2CN1Cc1cccc2ccccc12	38.6094%	83.3915%	90.1159%	144.616%	79.2211%	124.216%
C[C@@H]1CCN(C(=O)CC#N)C[C@@H]1N(C)c1ncnc2[nH]ccc12.O=C(O)CC(O)(CC(=O)O)C(=O)O [TOFACITINIB CITRATE]	83.3835%	105.446%	113.321%	86.9545%	105.115%	91.9737%
Cc1nc(C2CCN(C(=O)c3ccc(OC(F)(F)F)cc3N)CC2)c2ncc(N3CCN(C)CC3)cc2n1 [BAY-693]	77.0919%	74.1942%	93.6142%	129.276%	114.208%	166.908%
COc1cc(N2CCC(O)CC2)ccc1Nc1cc(Nc2ccccc2S(=O)(=O)C(C)C)c2cc[nH]c2n1	92.4485%	85.3579%	108.341%	84.332%	85.241%	81.2438%
CCOc1ccn(-c2ccc(F)cc2)c(=O)c1C(=O)Nc1ccc(Oc2ccnc(N)c2Cl)c(F)c1 [BMS-777607]	88.1625%	100.395%	100.48%	72.8578%	91.8113%	94.0587%
O=C(O)c1ccc2c(c1)nc(Nc1cccc(Cl)c1)c1ccncc12 [SILMITASERTIB]	116.96%	107.599%	158.324%	81.7658%	108.166%	80.6873%
COc1cc(OC)cc(-c2noc(N3CCN(C)C4(CCN(c5ccccc5)CC4)C3)n2)c1	135.567%	106.85%	90.427%	110.491%	67.7845%	115.277%
CNC(=O)Nc1ccc(-c2nc(N3CC4CCC(C3)O4)c3cnn(C4CCC5(CC4)OCCO5)c3n2)cc1	29.4838%	39.9364%	5.83%	97.6391%	4.885%	48.532%
CC(=O)Nc1c(C(C)=O)c(=O)n(C)c2nc(-c3ccc(Cl)cc3Cl)c(-c3ccc(Cl)cc3)cc12 [NAPHTHYRIDINONE]	155.496%	107.032%	105.882%	98.6055%	72.6588%	141.036%
CSc1cccnc1N1CCN(Cc2nc3ccccc3[nH]2)CC1 [A-769]	118.57%	113.172%	125.432%	98.3481%	75.6066%	105.586%
FC(F)c1nc2ccccc2n1-c1nc(N2CCOCC2)nc(N2CCOCC2)n1 [ZSTK-474]	72.7664%	74.8211%	124.253%	95.7276%	29.4296%	101.088%
COc1c(OCCCN2CCOCC2)ccc2c1N=C(NC(=O)c1cnc(N)nc1)N1CCN=C21 [COPANLISIB]	8.823%	38.6713%	2.299%	117.524%	1.487%	40.0213%
Nc1ncnc2c1ccn2[C@@H]1O[C@H]([C@H](O)c2ccccc2)[C@@H](O)[C@H]1O	25.5953%	72.0424%	28.7794%	179.519%	22.7938%	108.338%
COc1cc(Nc2nccc(-c3cnn4nc(OC)ccc34)n2)cc(C(F)(F)F)c1	7.4245%	53.4313%	11.0854%	189.711%	29.547%	143.538%
O=C(NCc1ccccc1)c1ccc(S(=O)(=O)NCc2ccccc2)cc1	108.82%	110.313%	89.1581%	96.8328%	32.2843%	131.443%
CN1C[C@H](Nc2cnn(C)c(=O)c2Br)C[C@H](c2ccccc2)C1	132.078%	105.854%	160.124%	106.068%	52.3497%	181.327%
Cc1cc2c(-c3ccco3)cnc(N[C@H]3CCN(C)C[C@@H]3C(=O)NC3CCCCC3)c2[nH]c1=O [GSK791]	100.549%	110.493%	101.663%	116.18%	113.813%	153.556%
O=C(O)c1ccc(-c2coc3ncc(-c4ccccc4)cc23)cc1Cl	182.141%	68.2046%	189.357%	126.188%	84.9927%	102.883%
CN1CCN(Cc2cc(NC(=O)c3ccc4c(c3)CN(c3ccccc3)CC4)cc(C(F)(F)F)c2)CC1	122.837%	90.754%	90.0307%	84.0381%	105.854%	147.303%
CCNC(=O)c1cc2c(N3CCOC[C@@H]3C)ccnc2n1C	116.155%	112.32%	107.341%	102.95%	84.5961%	69.3706%

— ChEMBL document CHEMBL5608141, “Identification of compartment-specific drug sensitivities in CRC organoid-stroma co-cultures” (2024)
